US5232926A, “Morphinane-skeletoned hydrazone derivatives” (priority 1992, dated 1993)

Tests used:
[1] = Sensitivity to light; assay type: physicochemical; settings: effect of light
[2] = Tail Flick test (analgetic activity); assay type: in vivo; settings: read-out: Tail Flick ED50
[3] = Hot plate test (analgetic activity); assay type: in vivo; settings: sc.

SMILES | sensitivity to light [1] | ED50 ([2]; sc.) | ED50 [3] | ED50 ([2]; sc) | Hot plate test ED50 [3]
COc1ccc2c3c1O[C@H]1C(=NNc4ccccc4)C=C[C@@]4(O)[C@@H](C2)N(C)CC[C@]314 [14-OH-codeinone phenylhydrazone] | sensitive to light, it turns to yellow due to the effect of light |  |  |  | 
COc1ccc2c3c1O[C@H]1C(=NNc4ccccc4)CC[C@H]4[C@@H](C2)N(C)CC[C@]314 [Dihydrocodeinone phenylhydrazone] |  | 2.3 mg/kg | 2.4 mg/kg |  | 
COc1ccc2c3c1O[C@H]1C(=NNC(N)=O)CC[C@H]4[C@@H](C2)N(C)CC[C@]314 [Dihydrocodeinone semicarbazone, Dihydrocodeinonesemicarbazone] |  | 0.35 mg/kg | 0.38 mg/kg |  | 
COc1ccc2c3c1O[C@H]1C(=NNC(N)=S)CC[C@H]4[C@@H](C2)N(C)CC[C@]314 [Dihydrocodeinone thiosemicarbazone] |  | 0.6 mg/kg | 1.7 mg/kg |  | 
CN1CC[C@]23c4c5ccc(O)c4O[C@H]2C(=NNc2ccc([N+](=O)[O-])cc2[N+](=O)[O-])CC[C@H]3[C@H]1C5 [Dihydromorphinone dinitrophenylhydrazone, Dihydromorphinone-2,4-dinitrophenyl hydrazone] |  | 0.18 mg/kg | 0.27 mg/kg |  | 
CN1CC[C@]23c4c5ccc(O)c4O[C@H]2C(=NNC(N)=O)CC[C@H]3[C@H]1C5 [Dihydromorphinone semicarbazone] |  | 0.13 mg/kg | 0.085 mg/kg |  | 
CN1CC[C@]23c4c5ccc(O)c4O[C@H]2[C@@H](O)C=C[C@H]3[C@H]1C5 [Morphine, reference compound] |  |  |  | 5 mg/kg | 3.6 mg/kg
COc1ccc2c3c1O[C@H]1C(=NNc4ccccc4)CC[C@@]4(O)[C@@H](C2)N(C)CC[C@]314 [Oxycodone phenylhydrazone, 14-OH-dihydrocodeinone phenylhydrazone] |  | 1.2 mg/kg | 0.8 mg/kg |  | 
COc1ccc2c3c1O[C@H]1C(=NNC(N)=O)CC[C@@]4(O)[C@@H](C2)N(C)CC[C@]314 [Oxycodone semicarbazone, 14-OH-dihydrocodeinonesemicarbazone] |  | 0.45 mg/kg | 0.58 mg/kg |  | 
CN1CC[C@]23c4c5ccc(O)c4O[C@H]2C(=NNc2ccc([N+](=O)[O-])cc2[N+](=O)[O-])CC[C@@]3(O)[C@H]1C5 [Oxymorphone dinitrophenylhydrazone, 14-OH-dihydromorphinone-2,4-dinitrophenyl hydrazone] |  | 0.27 mg/kg | 0.37 mg/kg |  | 
CN1CC[C@]23c4c5ccc(O)c4O[C@H]2C(=NNC(N)=O)CC[C@@]3(O)[C@H]1C5 [Oxymorphone semicarbazone, 14-OH-dihydromorphinone semicarbazone] |  | 0.9 mg/kg | 0.9 mg/kg |  | 
